Results: US12357536B2, “Containers with selective dissolved gas content” (BAXTER INTERNATIONAL INC., priority 2021, dated 2025)

Columns and labels:
[1] = Stability of a trace element mix in glass bottle, 6 months at 5° C. or 40° C. (Table V); details: for Concentration recovered, T6M 5° C. / Percentage of the recovered TE, T6M 5° C. / Concentration recovered, T6M 40° C. / Percentage of the recovered TE, T6M 40° C.: TE mix, pH 2.2, 200 mM malic acid, glass bottle (about 3 ppm DO), heat sterilized; for Concentration recovered, T6M 5° C. / Percentage of the recovered TE, T6M 5° C.: 6 months at 5° C.; for Percentage of the recovered TE, T6M 5° C. / Percentage of the recovered TE, T6M 40° C.: vs theoretical concentration; for Concentration recovered, T6M 40° C. / Percentage of the recovered TE, T6M 40° C.: 6 months at 40° C.
Method: The solution was heat sterilized and stored 6 months at 40° C. or 5° C.(T6M 40° C. and T6M 5° C., respectively).

[2] = Regression between Se assay and log dissolved oxygen (Example 7, FIG. 13); assay type: physicochemical; details: fitted line Se dosage vs log oxygen content; sterilized samples stored at 40° C.
Method: The impact of oxygen seems of major importance in the stability of Selenite. […] To confirm this hypothesis, a regression test was performed between Se assay results and log(dissolved oxygen results). Only sterilized samples stored at 40° C. were considered as the sterilization and storage at high temperature seem to both increase the Se degradation.
Dissolved oxygen content is so the most impacting parameter and CQA (Critical Quality Attribute) in the stability of Selenium. As shown in the Figure, low oxygen amounts of around 0.5 ppm can be sufficient to ensure the stability of Selenite in solution, no saturation would be required.

SMILES | Concentration recovered, T6M 5° C. [1] [ng/mL] | Percentage of the recovered TE, T6M 5° C. [1] [%] | Concentration recovered, T6M 40° C. [1] [ng/mL] | Percentage of the recovered TE, T6M 40° C. [1] [%] | Oxygen amount sufficient to ensure the stability of Selenite in solution [2] | Stability of selenite ([1]; in the presence of few ppm of dissolved oxygen)
[Cr] [Cr, chromium] | 306 | 77.3 | 329 | 83.1 |  | 
[Cu] [Cu, copper] | 9784 | 81.1 | 10504 | 87.1 |  | 
F [F, fluoride] |  | 94 |  | 88 |  | 
I [I, iodide] | 3167 | 78.6 | 3401 | 84.4 |  | 
[Mo] [Mo, molybdenum] | 653 | 79.9 | 707 | 86.6 |  | 
[Se] [Se, selenium] | 2446 | 87.2 | 2461 | 87.7 |  | 
[Zn] [Zn, zinc] | 158347 | 77.8 | 171822 | 84.4 |  | 
O=[Se](O)O [selenite, sodium selenite] |  |  |  |  | around 0.5 ppm | stable
